PubChem BioAssay (NCI)
Values joined by “and” are separate entries in the source; they are usually repeats but may differ in a detail not shown here. Equal values may be shown once.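 In this assay, cells in 96-well plates receive the compound at five concentrations for 48 hours. Endpoints are linearly interpolated between the surrounding concentrations. GI50 = concentration required for 50% inhibition of growth. TGI: concentration producing complete growth inhibition.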

Tests used:
Assay in all cases: NCI anticancer screen, dose series, 48 h
UACC-62 melanoma = tested on: UACC-62 melanoma
SK-MEL-28 melanoma = tested on: SK-MEL-28 melanoma
HT29 colon = tested on: HT29 colon
SF-268 CNS = tested on: SF-268 CNS
OVCAR-8 ovarian = tested on: OVCAR-8 ovarian
MOLT-4 leukemia = tested on: MOLT-4 leukemia
M14 melanoma = tested on: M14 melanoma
OVCAR-3 ovarian = tested on: OVCAR-3 ovarian
CCRF-CEM leukemia = tested on: CCRF-CEM leukemia
EKVX NSCLC = tested on: EKVX NSCLC

| SMILES | TGI (UACC-62 melanoma) | TGI (SK-MEL-28 melanoma) [µM] | GI50 (HT29 colon) | TGI (HT29 colon) [µM] | GI50 (SF-268 CNS) | TGI (SF-268 CNS) | TGI (OVCAR-8 ovarian) | GI50 (MOLT-4 leukemia) | TGI (MOLT-4 leukemia) [µM] | TGI (M14 melanoma) | GI50 (OVCAR-3 ovarian) | TGI (OVCAR-3 ovarian) [µM] | TGI (CCRF-CEM leukemia) | TGI (EKVX NSCLC) [µM] | GI50 (UACC-62 melanoma) | GI50 (SK-MEL-28 melanoma) | GI50 (OVCAR-8 ovarian) | GI50 (M14 melanoma) | GI50 (CCRF-CEM leukemia) | GI50 (EKVX NSCLC) |
| --- | --- | --- | --- | --- | --- | --- | --- | --- | --- | --- | --- | --- | --- | --- | --- | --- | --- | --- | --- | --- |
| Cc1ccc(NC(=O)CC(=O)n2nc(-c3ccccc3)c(N=Nc3ccccc3Cl)c2-c2ccccc2)cc1 | > 100 µM | > 100 | > 100000 nM | > 100 | > 100000 nM | > 100 µM | > 100 µM | > 100000 nM | > 100 | > 100 µM | > 100000 nM | > 100 | > 100 µM | > 100 | – | – | – | – | – | – |
| C=CCN1C=CC(=O)[C@H](O[Si](C)(C)C(C)(C)C)[C@@H]1/C=C/c1ccccc1 | 26.7 µM | 28.6 | 5390 nM | 19 | 15100 nM | 30.9 µM | > 100 µM | 10700 nM | 28.8 | 27.5 µM | 14000 nM | 27.8 | 40.1 µM | 40.7 | 12100 nM | 15 µM | 30600 nM | 13200 nM | 15200 nM | 14000 nM |
| Cc1ccc(NC(=O)CCC/C(CC(=O)c2ccc(Br)cc2)=N/NC(=O)CC#N)cc1 | > 100 µM | > 100 | – | > 100 | – | > 100 µM | > 100 µM | – | > 100 | > 100 µM | – | > 100 | > 100 µM | > 100 | – | – | – | – | – | – |
| COC(=O)c1c2c(c(C)[n+]([O-])c1C)C(=O)C=C(NCc1ccc(OC)cc1)C2=O | 2.51 µM | 10 | 1200 nM | > 36.7 | 2240 nM | 8.27 µM | 4.48 µM | 1550 nM | 5.3 | 4.3 µM | 795 nM | 2.29 | 14 µM | 5.24 | 850 nM | 3.2 µM | 1110 nM | 1920 nM | 1290 nM | 1920 nM |
| O=C(Nc1ccc(F)cc1)C(=O)C(C1OC(=O)c2ccccc21)[N+](=O)[O-] (centres undefined) | > 100 µM | > 100 | – | > 100 | – | > 100 µM | > 100 µM | – | > 100 | > 100 µM | – | > 100 | > 100 µM | > 100 | – | – | – | – | – | – |
| Nc1cc(-c2cccc(OC(F)(F)F)c2)nc2ccc(N3CCCC3)cc12 | 15.8 µM and > 100 µM | – | 35.5 nM and 33.8 nM and 35.4 nM | – | 81.9 nM and 83.7 nM and 78.4 nM | 22 µM and > 100 µM | 32.6 µM and > 100 µM | 44.7 nM and 42.2 nM and 40.5 nM | – | 1.6 µM and 1.7 µM | 31.8 nM and 28.8 nM and 27.3 nM | – | 11.6 µM and > 52.5 µM and > 49.6 µM | > 100 | 71.8 nM and 48 nM and 60.3 nM | 1.46 µM and 3.07 µM and 3.91 µM | 54.7 nM and 49.7 nM and 45.9 nM | 28.5 nM and 21.5 nM and 16.8 nM | 38.1 nM and 30.2 nM and 25.9 nM | 222 nM and 362 nM and 380 nM |
| O=S(=O)(c1ccc(N=C2NN=C(c3c[nH]c4ccccc34)CS2)cc1)N1CCOCC1 | > 100 µM | > 100 | 4480 nM | > 100 | 73700 nM | > 100 µM | > 100 µM | 3930 nM | 40.9 | > 100 µM | 18800 nM | > 100 | 58.8 µM | > 100 | 26800 nM | 37.7 µM | 9610 nM | – | 4690 nM | 5760 nM |
| O=CN1N=C(c2ccc(Cl)cc2)CC1c1cccc(Nc2ccnc3cc(Cl)ccc23)c1 (centres undefined) | 19.6 µM | 31.2 | 1280 nM | 7.61 | 2730 nM | > 100 µM | 29.1 µM | 1130 nM | 11 | 13.5 µM | 1100 nM | 14.5 | 23.1 µM | > 100 | 1140 nM | 3.15 µM | 1920 nM | 1550 nM | 1420 nM | 1590 nM |
| O=c1[nH]c2c3ccccc3ccc2c2cc3c(cc12)OCO3 | > 100 µM | > 100 | – | > 100 | – | > 100 µM | > 100 µM | – | > 100 | > 100 µM | – | > 100 | > 100 µM | > 100 | – | – | – | – | – | – |
| Cc1cc(C)nc(NS(=O)(=O)c2ccc(Nc3c4ccc(Cl)cc4nc4c(C(=O)Nc5ccc(S(=O)(=O)N=C(N)N)cc5)cccc34)cc2)n1 | > 100 µM | > 100 | – | > 100 | – | > 100 µM | > 100 µM | – | > 100 | > 100 µM | – | > 100 | > 100 µM | > 100 | – | – | – | – | – | – |
| CC(=O)N/C(=C\c1cccc([N+](=O)[O-])c1)c1nc2c3c(ccc2[nH]1)C(=O)c1ccccc1C3=O | > 100 µM | > 100 | – | > 100 | – | > 100 µM | > 100 µM | – | > 62.9 | > 100 µM | – | > 100 | > 100 µM | > 100 | – | – | – | – | – | – |
| Cc1cc2cc3c(C)cc(=O)oc3c(C)c2o1 | > 100 µM | > 100 | – | > 100 | – | > 100 µM | > 100 µM | – | > 100 | > 100 µM | – | > 100 | > 100 µM | > 100 | – | – | – | – | – | – |
